Patent EP0289604A1, “2-METHYLMERCAPTO-3-CYANO-4-(O-DIFLUOROMETHOXYPHENYL)-6-PHENYL-1,4-DIHYDROPYRIDINE” (INSTITUT ORGANICHESKOGO SINTEZA AKADEMII NAUK LATVIISKOI SSR, priority 1986, dated 1988)

Legend:
[1] = system: spontan hypertensiven Ratten; test: Hypotensive effect in spontaneously hypertensive rats, repeated intragastric administration for 10 days; assay type: in vivo; conditions: SHR
[2] = system: spontan hypertensiven Ratten (SHR); test: Hypotensive effect in spontaneously hypertensive rats, single intragastric administration; assay type: in vivo; conditions: for Der hypotensive Effekt, % an SHR nach 48 Stunden: after 48 hours; for Dauer der hypotensiven Wirkung: single intragastric dose 10 mg/kg (similar dose for comparators), time over which the effect is detected or after which it ends
[3] = Solubility and stability of the substance; assay type: physicochemical
Protocol: Die genannte Verbindung stellt eine kristalline Substanz vom 128 bis I30°C Schm.p. dar. […] Diese Verbindung ist sowohl in kristallinem Zustand als auch in Porm von Lösungen in organischen Lösungsmitteln stabil.

in vivo = conditions: mouse, ip, white outbred mice, intraperitoneal administration
[4] = dose 10 mg/kg, single intragastric administration, after 6 hours
[5] = dose 10 mg/kg, single intragastric administration

Compound | systolische Blutdruck herabgesetzt zum 10. Einführungstag ([1]; 10 mg/kg intragastric once daily for 10 days) | arterielle Blutdruck erreichte das Ausgangsniveau nach dem Aufhören der Einführung ([1]; after stopping 10 mg/kg intragastric once daily for 10 days) | Der hypotensive Effekt, % an SHR nach 6 Stunden [2, 4] | Der hypotensive Effekt, % an SHR nach 48 Stunden [2, 5] | Dauer der hypotensiven Wirkung [2] | systolische Blutdruck herabgesetzt ([2]; single intragastric dose 10 mg/kg, after 6 hours) | Effekt der Senkung des systolischen arteriellen Blutdrucks, Zeit nach der Einführung ([2]; single intragastric dose 10 mg/kg, onset of effect) | Stabilität ([3]; in crystalline state and as solutions in organic solvents) | Löslichkeit in Methyl-, Äthylalkohol, Azeton, Chloroform ([3]; organic solvents) | Löslichkeit in Wasser ([3]; water) | LD50 (in vivo) | Der hypotensive Effekt, % an SHR nach I Stunden ([2]; dose 10 mg/kg, single intragastric administration, after 1 hour) | Der hypotensive Effekt, % an SHR nach 24 Stunden ([2]; dose 10 mg/kg, single intragastric administration, after 24 hours)
CSC1=C(C#N)C(c2ccccc2OC(F)F)C=C(c2ccccc2)N1 (stereo not shown) [Die erfindungsgemässe Verbindung, 2-Methylmerkapto-3-zyano-4-(o-difluormethoxyphenyl)-6-phenyl-I,4-dihydropyridin] | 26% | ≤ 3 Tagen | 24% | 6% | ≤ 48 Stunden | 21% | 30 Minuten | stabil | gut löslich | praktisch unlöslich | > 5000 mg/kg |  | 
COC(=O)C1=C(C)NC(C)=C(C(=O)OC)C1c1ccccc1[N+](=O)[O-] [Nifedipine, 2,6-Dimethyl-3,5-dimethoxykarbonyl-4-(o-nithophenyl)-I,4-di-hydropyridin, reference compound] |  |  | 23% | 0% | 6 Stunden |  |  |  |  |  |  | 34% | 0%
